pIC50: −log10 of the molar value. Square brackets hold non-standard residues; d marks the D form. Peptide text beside a SMILES is read from it. * marks the point of attachment. Dolaproine = CO[C@@H]([C@@H]1CCCN1)[C@@H](C)C(=O)O; Dil = CC[C@H](C)[C@H](NC)[C@@H](CC(=O)O)OC; X1 = C[C@@H](N*)[C@@H](O)c1ccccc1; NMeV = CN[C@H](C(=O)O)C(C)C
Legend:
[1] = tested on: C16orf54 expressing Sarcoma line 1; assay: Cell viability assay, C16orf54 expressing sarcoma line 1; type: cell-based, murine; conditions: 1000 cells/well, 72 hours
Method: (§1) Murine sarcoma cell lines that express C16orf54 were prepared by virus infection of sarcoma cell lines. A PCR-amplified C16orf54 gene was cloned into a murine stem cell virus expression vector with a neomycin resistance gene and sequenced to confirm the identity. To prepare virus particles, HEK 293t cells with retroviral packaging proteins were transfected, in the presence of transfection reagent FUGENE HD (Roche), with the retroviral expression vector containing C16orf54. The virus particles collected from the supernatant of the culture media 48 hours after transfection were used to infect the sarcoma cells. After G418 selection, stable transfectants were pooled and then cloned by limiting dilution. Clones were then picked and expanded in the presence of antibiotics. Clones with the highest expression level of C16orf54 as measured by flow cytometry were expanded and banked. These cell lines were then used to immunize the syngeneic mice for antibody production and in the binding assays for antibody selection as follows.
(§2) The anti-tumor activity of unconjugated anti-C16orf54 antibodies and anti-C16orf54 antibodies that were directly conjugated with […] (ADCs) was determined in a cell viability assay using several C16orf54-expressing cell lines. Cells were plated at 1000 cells/well and incubated in the presence of antibodies or ADCs for 72 hours.

[2] = tested on: C16orf54 expressing sarcoma line 2; assay: Cell viability assay, C16orf54 expressing sarcoma line 2; type: cell-based, murine; conditions: 1000 cells/well, 72 hours
Method: as §1, §2

Structure (SMILES): CC[C@H](C)[C@@H]([C@@H](CC(=O)N1CCC[C@H]1[C@H](OC)[C@@H](C)C(=O)N[C@H](C)[C@@H](O)c1ccccc1)OC)N(C)C(=O)[C@@H](NC(=O)[C@@H](NC)C(C)C)C(C)C [MMAE, monomethylauristatin E] (H-[NMeV]V[Dil][Dolaproine]-X1)
- pIC50 [1]: 9.40
- pIC50 [2]: 8.39

Source: patent publication US20150231240A1, “ANTI-C16ORF54 ANTIBODIES AND METHODS OF USE THEREOF” (priority 2012, published 2015)
